Paper PMC10726355, “Small Molecule Ligands of the BET-like Bromodomain, SmBRD3, Affect Schistosoma mansoni Survival, Oviposition, and Development” (Journal of Medicinal Chemistry, 2023)
Converted amounts (≈) assume the structure as drawn. “Also recorded” adds a separate entry of the source. Read-outs that look alike come from different tables or passages of the source.

Assays:
SmBRD3(2) = SmBRD3(2) (Schistosoma mansoni, UniProt A0A5K4ESD7); experiment: biochemical; format: binding
[1] = Compound conversion in media with or without worms (LCMS); format: in vitro ADME; details: media in the presence or absence of worms; 20 μM; 24 h
Experimental: As the low solubility of the ethyl ester derivatives prevented us from determining their affinity for SmBRD3(2) using ITC, it is possible that these compounds are themselves inhibitors of SmBRD3(2). Alternatively, the ethyl esters could function as pro-drugs that release the corresponding acid in the parasite. To investigate compound permeability, adult worms were treated with 20 μM of the acid 15 or the ethyl ester 22 for 24 h, and then the media exchanged three times. The worms were then lysed and the levels of the acid 15 or the ethyl ester 22 were determined using LCMS (Figure S50).
Figure S-52. A. Estimation of the concentration of 15 and 22 in media after incubation with 22 in the presence and absence of S. mansoni. The concentration estimations were calculated as an average (presence of worm n=3, no worm n=2) from the analysis media in the presence (5 worms per well) or absence of worms, with error bars representing the s.e.m. B. Estimation of the concentration of 1 and 2 in media after incubation with 2 in the presence and absence of S. mansoni. The concentration estimations were calculated as an average (presence of worm n=2, no worm n=1) from the analysis of media in the presence (5 worms per well) or absence of worms with error bars representing the […]

SmBRD3(1,2) [2] = target: SmBRD3(1,2) (Schistosoma mansoni, UniProt A0A5K4ESD7); experiment: biochemical; format: binding; details: for N number, binding to SmBRD3(1,2): ITC stoichiometry, n=1 ± error of curve fit
S. mansoni miracidia = experiment: Ex vivo miracidia to sporocyst transformation screening; set-up: species or system Schistosoma mansoni; details: 48 h
Experimental: S. mansoni miracidia were obtained by hatching of schistosome eggs as previously described.[73] The resulting miracidial suspension was collected, washed with Chernin’s balanced salt solution (CBSS),[73] and enumerated prior to being used for ex vivo miracidia to sporocyst screens as previously reported.[66],[73] Each compound was tested at 0.5, 2.0, 5.0, 10, and 25 μM final concentrations (in 1% DMSO). Each treatment was set up in duplicate (15–25 miracidia/well). Each titration was performed in three independent experiments (two technical replicates per data point). Parasites cultured in CBSS (containing 1% DMSO) were included as negative controls. After 48 h incubation at 26 °C in the dark, dead, fully transformed and partially transformed miracidia were enumerated as previously described.[74],[75]

S. mansoni schistosomula = experiment: Ex vivo schistosomula screening (Roboworm high content imaging); set-up: species or system Schistosoma mansoni; details: 72 h; for EC50: Schistosoma mansoni, ethyl esters (R=Et), 95% CI in brackets
Experimental: A high-throughput imaging platform that quantifies both phenotype and motility ex vivo, was used to screen compounds against schistosomula; their effects were assessed as previously described.[20] Briefly, the schistosomula stage of S. mansoni was obtained by mechanical transformation of cercariae, dispensed into 384-well tissue culture plates, and dosed with 20 μM (Figure 7) or 10 μM (Figure S48) of each compound. Following 72 h coincubation of the schistosomula and compound, the plate was subjected to high content imaging to quantify the effects of each compound.
S. mansoni schistosomula were obtained by mechanical transformation from cercariae as previously described,[64] distributed in 384-well tissue culture plates (PerkinElmer, catalogue number 6007460) at 120 parasites/well and dosed with the selected compounds as previously reported.[65]−[68] For this study, each compound (as 10 mM DMSO stock solution) was initially tested at two concentration points (20 and 10 μM final concentration, in duplicates) in at least four independent screens (Z′ scores above 0.35).[69] Each screen contained both positive (10 μM auranofin (AUR) in 0.625% DMSO) and negative (0.625% DMSO) controls. […] Following 72 h schistosomula/compound coincubation, the plate was analyzed by the Roboworm platform.[70] EC50 values were calculated from the titrated concentrations by nonlinear regression, after log transformation of concentrations and data normalization using GraphPad Prism 7.02.

SmBRD3(1,2) [3] = experiment: Differential scanning fluorimetry (thermal shift), SmBRD3(1,2); details: DSF; 50 μM compound
Experimental: Reported ΔTm values are the mean of two replicates.
The differential scanning fluorimetry (DSF) or thermal stability assays were carried out following the protocol described by Niesen et al. and data were analysed as described previously.8 Thermal melting experiments were carried out using the Mx3005p real-time PCR machine (Agilent) and employing a protein concentration of 5 μM for the schistosomal bromodomains [SmBRD3(2),
the DMSO content was 0.5% (v/v). Buffer conditions were 50 mM HEPES buffer, pH 7.5, 500 mM NaCl and a 1:500 dilution of SYPRO® Orange (Invitrogen, CA) was used. The 96-well PCR plates were sealed and centrifuged for 2 min at 1000 rpm at 25 °C before measurement. The temperature was raised with a step of 1 °C per 30 s from 25 °C to 85 °C, and fluorescence readings were taken
difference between the transition midpoints of sample and reference wells containing protein without inhibitor in the same plate. Reported ΔTm values are the mean of two replicates.
Isothermal titration calorimetry experiments were performed on a MicroCal PEAQ-ITC Automated or Manual (Malvern) and analysed with the MicroCal PEAQ-ITC Analysis software (Malvern 1.1.0.1262) using a single binding site model. For each experiment, the first data point was removed from the analysis. The proteins were dialysed at 4 °C overnight in a Slide-A-LyzerR MINI Dialysis Device (2000 MWCO; Thermo Scientific Life Technologies) into 50 mM HEPES, 150 mM NaCl containing 0.2% DMSO; pH 7.4. Proteins were centrifuged to remove aggregates (3 min, 3000 rpm, 25 °C).
Compounds were dissolved as a DMSO stock solution and diluted to the required concentration using dialysis buffer (DMSO free) and to a final DMSO concentration of 0.2% (unless otherwise specified). The cell was stirred at 750 rpm, reference power set to 5 μcal/s and temperature held at 25 °C. After an initial delay of 60 s, 19 x 2 μL injections (first injection 0.4 μL) were performed with a spacing of 180 s. […]

S. mansoni adult worms = experiment: Ex vivo adult worm screening (motility, IVLEs, pairing); set-up: species or system Schistosoma mansoni; details: 72 h
Experimental: S. mansoni adult worms were recovered by hepatic portal vein perfusion from TO mice (Mus musculus HsdOLa:TO - Tuck Ordinary; Envigo, UK) that were percutaneously infected 7 weeks earlier with 180 cercariae.[65],[71] Following perfusion, schistosomes were washed and processed as previously described.[65],[66] Subsequently, schistosome pairs were seeded into 48 well tissue culture plates (1 worm pair/well, in duplicate) and dosed with the compounds (20 μM in 0.2% DMSO). DMSO (0.2%) and praziquantel (10 μM in 0.1% DMSO) were also included as negative and positive controls, respectively. Parasite motility was assessed by a digital image processing-based system (WormassayGP2),[66] modified after Wormassay.[72]In vitro laid eggs (IVLEs) were enumerated and the presence or absence of paired worms was noted.

adult male S. mansoni = experiment: Determination of compound parasite permeability (LCMS of worm lysate); format: in vitro ADME, Schistosoma mansoni; details: for Quantity of compound found in lysed adult worms: worms treated with 20 μM of the same compound for 24 h
CAD solubility assay = format: physicochemical; details: phosphate buffered saline, pH 7.4, phosphate buffered saline at pH 7.4; read-out: Aqueous Solubility by CAD
Experimental: A CAD solubility assay was carried out by Physchem Team, Discovery Analytical, NCE Molecular Discovery at GSK. 5 μL of 10 mM DMSO stock solution was diluted to 100 μL with pH 7.4 phosphate buffered saline, equilibrated for 1 h at room temperature, and filtered through Millipore MultiscreenHTS-PCF filter plates (MSSL BPC). The filtrate was quantified using a suitably calibrated charged aerosol detector.[45]

chromLogD assay = format: physicochemical; details: reversed phase HPLC column (Gemini NX C18), pH 7.4
Experimental: Lipophilicity: a chromLogD assay was carried out by the Physchem Team, Discovery Analytical, NCE Molecular Discovery at GSK. The chromatographic hydrophobicity index (CHI)[46],[47] values were measured using reversed phase HPLC column (50 × 2 mm […] Gemini NX C18, Phenomenex, UK) with fast acetonitrile gradient at starting mobile phase of pHs 2, 7.4, or 10.5. CHI values were derived directly from the gradient retention times using calibration parameters for standard compounds. The CHI value approximates to the volume % organic concentration when the compound elutes. CHI was linearly transformed into a chromLogD[48] value by least-squares fitting of experimental CHI values to calculated cLogP values for over 20000 research compounds.

HsBRD4(1) = target: T1, HsBRD4(1) (Homo sapiens, UniProt O60885); experiment: Isothermal titration calorimetry (ITC), HsBRD4(1); format: binding; details: single value ± error of the curve fit
T1 construct: HsBRD4(1) Kd (ITC, nM); made in house; host or cells: E. coli BL21(DE3)

[4] = 20 μM (Figure 7) or 10 μM (Figure S48)

For `CC(=O)Oc1cc(-c2c(C)noc2C)cc(C(O)c2ccccc2)c1` (centres unmarked) [OXFBD03 (2), OXFBD03, reference compound], the “SmBRD3(2) Kd, Repeat 1” value (SmBRD3(2); ITC, single run ± error of curve fit, Repeat 1) was “No binding”, the “SmBRD3(2) Kd” value (SmBRD3(2); ITC, single value ± error of the curve fit or mean of 2-3 repeats ± s.e.m.) was “No detectable binding” and the “Conversion in media (ester hydrolysis / deacetylation)” value [1] was “rapidly deacetylated”. The “N number, binding to SmBRD3(1,2)” value (SmBRD3(1,2) [2]) was 1.17 ± 1.7e-2, the Kd (SmBRD3(1,2) [2]; SmBRD3(1,2) Kd, ITC, n = 1 ± error of the curve fit) was 0.675 ± 0.0976 µM and the Kd (SmBRD3(1,2) [2]; SmBRD3(1,2) pKd, ITC) was 0.631 µM.

For “(+)-JQ1 [(+)-JQ1 (5), reference compound]”, the “SmBRD3(2) Kd” value (SmBRD3(2)) was “no binding detected; also recorded: No detectable binding”, the “SmBRD3(2) Kd, Repeat 1” value (SmBRD3(2)) was “No binding” and the “Toxicity to miracidia (dead parasites)” value (S. mansoni miracidia; 0.5-25 μM in 1% DMSO) was “toxic at the higher concentrations”. For the same compound, the “Effect on schistosomula phenotype” value (S. mansoni schistosomula; [4]) was “showed activity”, the “Thermal stabilisation (ΔTm) of SmBRD3(1,2)” value (SmBRD3(1,2) [3]) was “stabilize SmBRD3(1,2)” and the “SmBRD3(1,2) pKd” value (SmBRD3(1,2) [2]; ITC) was 6.4. For the same compound, the “N number, binding to SmBRD3(1,2)” value (SmBRD3(1,2) [2]) was 3.87 ± 7.0 e-2 and the Kd (SmBRD3(1,2) [2]; ITC, n = 1 ± error of the curve fit, read-out: SmBRD3(1,2) Kd) was 0.445 ± 0.106 µM.

With `CCOC(=O)c1ccc(-c2ccc3c(c2)[C@H](Nc2ccc4ncccc4c2)C[C@H](C)N3C(C)=O)cc1` [Compound 22, Ethyl 4-{(2S,4R)-1-Acetyl-2-methyl-4-[(quinolin-6-yl)amino]-1,2,3,4-tetrahydroquinolin-6-yl}benzoate] the “Effect on adult worm movement” value (S. mansoni adult worms; 20 μM in 0.2% DMSO) was “substantial effects; also recorded: reduced”, the “Effect on egg count (in vitro laid eggs)” value (S. mansoni adult worms; 20 μM) was “reduced” and the “Effect on worm pairing” value (S. mansoni adult worms; 20 μM) was “reduced”. The “SmBRD3(2) Kd” value (SmBRD3(2)) was “No binding”, the “SmBRD3(2) Kd, Repeat 1” value (SmBRD3(2)) was “No binding” and the Worm permeability (adult male S. mansoni; adult worms, 20 μM, 24 h) was “high worm permeability”. For the same compound, the “Conversion of ester to acid 15 in the worm” value (adult male S. mansoni; worms treated with 20 μM for 24 h, LCMS) was “can be converted from the ester to the acid in the worm”, the “Quantity of compound found in lysed adult worms” value (adult male S. mansoni; LCMS) was “High quantities” and the solubility at 1 h (CAD solubility assay) was 13 µM (≈ 6.23 µg/mL). The “Effect on miracidia to sporocyst transformation” value (S. mansoni miracidia; 0.5-25 μM in 1% DMSO, 26 °C) was “concentration-dependent inhibition; also recorded: substantial and concentration-dependent effect”, the “Concentration at which the majority of miracidia were prevented from transforming into sporocysts” value (S. mansoni miracidia) was 2.00 µM and the “Conversion in media (ester hydrolysis / deacetylation)” value [1] was “some ester hydrolysis”. For the same compound, the “Antischistosomula activity at 10 μM” value (S. mansoni schistosomula; 10 μM) was “active”, the “Effect on schistosomula motility” value (S. mansoni schistosomula; [4]) was “greatest effects; also recorded: strong effects” and the “Effect on schistosomula phenotype” value (S. mansoni schistosomula; [4]) was “greatest effects; also recorded: strong effects”. For the same compound, the EC50 (S. mansoni schistosomula; read-out: Schistosomla Movement EC50) was 3.3 µM, the EC50 (S. mansoni schistosomula; read-out: Schistosomla Phenotype EC50) was 1.11 µM and the chromatographic logD (chromLogD assay) was 5.95.

In the case of `CC(=O)N1c2ccc(-c3ccc(C(=O)O)cc3)cc2[C@H](Nc2ccc3ncccc3c2)C[C@@H]1C` [Compound 15, 4-{(2S,4R)-1-Acetyl-2-methyl-4-[(quinolin-6-yl)amino]-1,2,3,4-tetrahydroquinolin-6-yl}benzoic Acid], the “N number, binding to SmBRD3(2), Repeat 1” value (SmBRD3(2); ITC stoichiometry, Repeat 1) is reported as 1.48 ± 2.5e-2, the “N number, binding to SmBRD3(2), Repeat 2” value (SmBRD3(2); ITC stoichiometry, Repeat 2) is reported as 1.51 ± 2.0e-2 and the “N number, binding to SmBRD3(2), Repeat 3” value (SmBRD3(2); ITC stoichiometry, Repeat 3) is reported as 1.69 ± 1.8e-2. The “N number, binding to SmBRD3(2), Mean” value (SmBRD3(2); ITC stoichiometry, mean of repeats) was 1.56, the Kd (SmBRD3(2); ITC, read-out: SmBRD3(2) pKd (converted)) was 0.398 µM and the Kd (SmBRD3(2); ITC, single run ± error of curve fit, Repeat 2, read-out: SmBRD3(2) Kd, Repeat 2) was 0.361 ± 0.0702 µM. The Kd (SmBRD3(2); ITC, single run ± error of curve fit, Repeat 3, read-out: SmBRD3(2) Kd, Repeat 3) was 0.411 ± 0.0604 µM, the Kd (SmBRD3(2); read-out: SmBRD3(2) Kd) was 0.364 ± 0.0263 µM and the Kd (SmBRD3(2); read-out: SmBRD3(2) Kd, Repeat 1) was 0.32 ± 0.0828 µM. The “Quantity of compound found in lysed adult worms” value (adult male S. mansoni; LCMS) was “lower quantities”, the “HsBRD4(1) Kd (ITC)” value (HsBRD4(1)) was “high affinity” and the Kd (HsBRD4(1)) was 0.0135 ± 0.00247 µM.
